{"source": "BindingDB's records for doi:10.1158/1535-7163.MCT-05-0442", "about": "(Celera Genomics, 2006)", "molecular_target": "Histone deacetylase 1 (Homo sapiens, UniProt Q13547)", "sequence (Q13547 whole entry)": "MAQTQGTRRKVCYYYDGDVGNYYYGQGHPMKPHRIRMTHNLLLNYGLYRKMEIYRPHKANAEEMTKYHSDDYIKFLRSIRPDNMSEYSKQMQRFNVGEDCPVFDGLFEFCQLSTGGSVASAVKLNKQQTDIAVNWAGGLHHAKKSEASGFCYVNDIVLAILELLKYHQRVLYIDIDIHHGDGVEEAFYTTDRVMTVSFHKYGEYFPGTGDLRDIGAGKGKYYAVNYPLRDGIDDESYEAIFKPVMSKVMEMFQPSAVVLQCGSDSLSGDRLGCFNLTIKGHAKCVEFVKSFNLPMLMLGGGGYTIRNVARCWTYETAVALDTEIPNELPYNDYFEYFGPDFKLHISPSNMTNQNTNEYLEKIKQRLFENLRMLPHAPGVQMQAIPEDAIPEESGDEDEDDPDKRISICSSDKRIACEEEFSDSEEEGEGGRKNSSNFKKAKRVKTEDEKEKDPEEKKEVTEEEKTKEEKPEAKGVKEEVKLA", "test": "HDAC Inhibition Assay", "details": "pH 7.4; 22 °C", "protocol": "HDAC activity was measured using a continuous trypsin-coupled assay. For inhibitor characterization, measurements were done using 96-well assay plates. Enzyme was mixed with inhibitor at various concentrations and allowed to incubate for 15 minutes. […] Reactions were monitored in a fluorescence plate reader. […] The increase in fluorescence with time was used as the measure of the reaction rate. Inhibition constants Ki(app) were obtained using the program BatchKi."}
{"smiles": "O=C(NO)c1ccc(OCCNC(=O)c2ccccc2)cc1", "note": "[N-hydroxy-4-[2-(phenylformamido)ethoxy]benzamide]", "values": [{"measurement": "Ki", "value": 43, "unit": "nM"}]}
{"smiles": "CN(C)Cc1c(C(=O)NCCOc2ccc(C(=O)O)cc2)oc2ccccc12", "note": "[4-[2-({3-[(dimethylamino)methyl]-1-benzofuran-2-yl}formamido)ethoxy]benzoic acid]", "values": [{"measurement": "Ki", "value": "> 50000", "unit": "nM"}]}
{"smiles": "O=C(NO)c1ccc(OCCNC(=O)c2ccc3ccccc3c2)cc1", "note": "[N-{2-[4-(hydroxycarbamoyl)phenoxy]ethyl}naphthalene-2-carboxamide]", "values": [{"measurement": "Ki", "value": 6, "unit": "nM"}]}
{"smiles": "O=C(NO)c1ccc(OCCNC(=O)c2cc3ccccc3o2)cc1", "note": "[N-{2-[4-(hydroxycarbamoyl)phenoxy]ethyl}-1-benzofuran-2-carboxamide]", "values": [{"measurement": "Ki", "value": 4, "unit": "nM"}]}
